Consider 28 compounds from publication PMC3340893, “IspE Inhibitors Identified by a Combination of In Silico and In Vitro High-Throughput Screening” (PLoS ONE, 2012).

Data set [1] addresses T1, EcIspE (Escherichia coli, UniProt P62615).
T1 construct: made in house
The experiment in a line: IspE inhibition assay (Promega Kinase-Glo Plus), IC50 determination. Type of data set: biochemical. As to conditions: for Ligand efficiency: from IC50 converted to Ki assuming competitive inhibition of the cytidine binding site, KM 150 µM, [CDP-ME] 500 µM, T = 298 K; for EcIspE inhibition at 100 µM: typical protein kinase inhibitors evaluated as possible standard inhibitor; for fold weaker IC50 / loss in potency compared to the screening hit: relative to parent screening hit (4, 7 or 8). The procedure: Inhibition of EcIspE was measured using the Promega Kinase-Glo®-Plus kit. This kit determines the remaining ATP concentration after the kinase reaction took place by converting luciferin to oxyluciferin via an ATP-dependent luciferase. Oxyluciferin is chemoluminescent and can be detected using a plate reader.
The assay was performed under the following conditions: 90 µM ATP, 500 µM CDP-ME, 200 nM EcIspE in 100 mM Tris-HCl, pH 8.5, 20 mM MgCl2, 2% DMSO, 0.01% (v/v) Triton-X 100. The reaction was carried out in 384-well plates with 25 µl reaction volumes, incubated at 25°C for 180 min, and stopped with 25 µl Kinase-Glo® Plus reagent (Promega, Madison, USA). The chemoluminescence signal was developed for 45 min at room temperature and read out in a plate reader (TopCount, PerkinElmer, USA). To monitor assay performance and to control for inhibition of the luciferase of the Kinase-Glo® Plus kit wells containing either the reaction mixture plus compound 3 or 4 or all ingredients except for CDP-ME were also prepared. Further, as quality control for each assay plate, wells containing the kinase reaction without an inhibitor, and wells containing only ATP in assay buffer were prepared. The signals of these wells were averaged (AVHIGH, AVLOW) and used to calculate the signal to noise ratio (AVHIGH/AVLOW) and Z′ (1− [drawing 1]; SD: standard deviation). The best performance was obtained with an ATP concentration of 90 µM and a CDP-ME concentration of 500 µM (Signal to noise ratio = 3.3, Z′ = 0.69 in assay development). In this setup the ATP and CDP-ME concentrations are ∼0.2×K M and ∼3×K M, respectively. Consequently, the assay can be used to detect ligands binding to both the substrate and co-factor binding sites.
(§1) Compounds were dissolved in DMSO at concentrations between 10 and 200 mM (depending on maximal solubility) and added to the reaction mixture with a final concentration of 2% DMSO (v/v). For compounds where IspE inhibition was indicated, a 1∶3 dilution series in DMSO was prepared and tested in the same endpoint assay. IC50 values were derived by non-linear regression with a 4-parameter fit to the following equation in GraFit (Erithacus Software Ltd., Surrey, UK). [drawing 2] where y: measured signal of assay: ymax: saturated signal: [I]: inhibitor concentration: slope: Hill slope; ymin: background signal of assay.
As the assay was performed at relatively high substrate concentrations (∼3×K M) for ligand efficiency calculations, the measured IC50 values were first converted to K i values.
Ligand efficiencies were calculated using the formula: [drawing 4] where T = 298 K and R = the ideal gas constant.

The target in data set [2] is T1, EcIspE. On the set-up: method as in PMID 18033714, PMID 18633530, PMID 18422643, PMID 17361977, PMID 21903402. The note with it: substrate-like IspE inhibitors, Figure 4; cited from earlier work.
The nature of data set [3]: Solubility limit in the assay. The format is physicochemical. The note with it: EcIspE assay reaction mixture, aqueous buffer, kinetic from dmso stock; highest concentration tested in the EcIspE assay.
Text: In the modelled binding mode of ligand 4 the pyrrolopyridine scaffold is sandwiched between Tyr24 and Tyr175 and potentially interacts with His25 via three hydrogen bonds (Figure 12a). In addition, the charged amino group in the tetrahydropyrimidinium ring may form a salt bridge interaction with Asp130. Commercially available analogues of this compound were selected to probe possible interactions with Asp130, His25 and the backbone of Lys145 (Figure 13, Table 4). […] Accordingly, these compounds can no longer form a salt bridge with Asp130. In the predicted binding mode of 12 a neutral hydrogen-bond via the thio-urea group is formed with Asp130 instead while 13 is assumed to interact with Lys9 NZ and Thr171 OG1 (Figure 12c and d). […] In order to accommodate 14 in the binding site in a similar binding mode as 4, structural rearrangements are required to avoid a steric clash of the cyclo-propyl moiety with the backbone carbonyl group of Lys145 (Figure 2). An alternative binding mode for this compound is also possible in which the core is flipped by 180° compared to 4 but still forms hydrogen bonds with His25 (Figure 12b). In this orientation, both substituents are solvent exposed.
as §1

Where [4] appears, read: average of three independent measurements, SD in brackets, 90 µM ATP, 500 µM CDP-ME, 200 nM EcIspE, pH 8.5, n.i. = no inhibition at solubility limit measured, read-out: IC50 [M] (SD).

Values after ≈ are worked out from the molar mass of the structure shown. Like-named read-outs stand apart in the source and are kept apart here.

T1 sequence (P62615 whole entry): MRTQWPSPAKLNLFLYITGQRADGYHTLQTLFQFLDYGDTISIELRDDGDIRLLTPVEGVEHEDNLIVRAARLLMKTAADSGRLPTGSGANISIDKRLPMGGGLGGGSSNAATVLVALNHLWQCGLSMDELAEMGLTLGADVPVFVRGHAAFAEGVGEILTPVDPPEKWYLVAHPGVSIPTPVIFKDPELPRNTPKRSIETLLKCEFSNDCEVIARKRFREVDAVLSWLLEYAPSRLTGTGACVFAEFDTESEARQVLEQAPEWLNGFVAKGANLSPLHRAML

As to `Cc1[nH]c2ccccc2c1C(Nc1ccccn1)c1ccccc1Cl` (centres unmarked) [Compound 19], on EcIspE [1] (setting [4]), the IC50 turned out to be 0.0024 M. Further, the Ligand efficiency on EcIspE [1] was 0.18 kcal/mol per non-hydrogen atom.

As to `Nc1nc(N)c2[nH]c(=O)[nH]c2n1` [Compound 5], the 50% inhibitory concentration (IC50) on EcIspE [1] (setting [4]) came out at 0.0023 M. In addition, at EcIspE [1], the Ligand efficiency is recorded as 0.37 kcal/mol per non-hydrogen atom.

Turning to `C1=C(c2c[nH]c3ncccc23)CCNC1` [Compound 4], on EcIspE [1], the 50% inhibitory concentration (IC50) is 0.0015 M and the Ligand efficiency is given as 0.32 kcal/mol per non-hydrogen atom.

In the case of `c1csc(NC2CCCCC2)n1` [Compound 9], on EcIspE [1] (setting [4]), the IC50 came to 0.0094 M. The Ligand efficiency on EcIspE [1] is reported as 0.30 kcal/mol per non-hydrogen atom.

Take `CC(C)Nc1nccs1` [Compound 11]: the half-maximal inhibitory concentration (IC50) on EcIspE [1] (setting [4]) turned out to be 0.002 M. Moreover, on EcIspE [1], the Ligand efficiency is 0.50 kcal/mol per non-hydrogen atom.

In the case of `CN[C@@H]1C[C@H]2O[C@@](C)([C@@H]1OC)n1c3ccccc3c3c4c(c5c6ccccc6n2c5c31)C(=O)NC4` [staurosporine, reference compound], the “EcIspE inhibition at 100 µM” value at EcIspE [1] is on record as “none of the compounds showed any EcIspE inhibition”.

Consider `Nc1ccn([C@@H]2O[C@H](CNC(=O)Cc3nc4ccccc4[nH]3)[C@@H](O)[C@H]2O)c(=O)n1` [a], for which the IC50 at EcIspE [2] was 2000 µM.

Take `Cc1[nH]c2ccccc2c1C(Nc1ccccn1)c1ccccc1O` (centres unmarked) [Compound 7]: the Ligand efficiency at EcIspE [1] is 0.29 kcal/mol per non-hydrogen atom. Moreover, the 50% inhibitory concentration (IC50) on EcIspE [1] (read-out: IC50) was 1.9e-05 M.

With `CNC(=S)N1CC=C(c2c[nH]c3ncccc23)CC1` [Compound 12], the IC50 on EcIspE [1] (setting [4]) stood at 0.00083 M. Moreover, the Ligand efficiency on EcIspE [1] is 0.27 kcal/mol per non-hydrogen atom.

Take `C1=C(c2c[nH]c3ncccc23)CCN(c2ncccn2)C1` [Compound 13]: at EcIspE [1] (setting [4]), the 50% inhibitory concentration (IC50) was 0.00047 M. For the same compound, the Ligand efficiency at EcIspE [1] is on record as 0.26 kcal/mol per non-hydrogen atom.

Consider `Oc1csc(Nc2nccs2)n1` [Compound 3], for which the Ligand efficiency on EcIspE [1] is recorded as 0.50 kcal/mol per non-hydrogen atom. Besides, the 50% inhibitory concentration (IC50) at EcIspE [1] (read-out: IC50) was 0.00016 M.

For `CC(C)c1cc2cccnc2n1CCCN` [Compound 16], the solubility in data set [3] is 1000 to 5000 µM (≈ 217 to 1090 µg/mL).

On to `Cc1[nH]c2ccccc2c1C(Nc1cccc(Cl)c1)c1ccccn1` (centres unmarked) [Compound 20], for which the half-inhibitory concentration (IC50) at EcIspE [1] (setting [4]) worked out at 0.0025 M. Besides, on EcIspE [1], the Ligand efficiency is on record as 0.18 kcal/mol per non-hydrogen atom and the “fold weaker IC50 / loss in potency compared to the screening hit” value (“fold weaker IC50 / loss in potency” for short) worked out at 130 fold.

On to `CC(C)c1cc2cccnc2n1CCC(=O)O` [Compound 17], for which, in data set [3], the solubility lay within 1000 to 5000 µM (≈ 232 to 1160 µg/mL).

Consider `O=c1c2ccccc2nc(-c2cccnc2)n1-c1ccc(Br)cn1` [Compound 8], for which, at EcIspE [1], the IC50 came out at 2.5e-06 M and the Ligand efficiency is recorded as 0.35 kcal/mol per non-hydrogen atom.

Take `COc1ccc(-n2c(-c3ccncc3)nc3ccccc3c2=O)cc1` [Compound 23]: on EcIspE [1] (setting [4]), the IC50 is 0.00032 M. On EcIspE [1], the Ligand efficiency is reported as 0.23 kcal/mol per non-hydrogen atom.

On to `Nc1n[nH]c(NCc2cccnc2)n1` [Compound 1], for which, on EcIspE [1] (setting [4]), the half-inhibitory concentration (IC50) amounted to 0.0018 M. Besides, the Ligand efficiency on EcIspE [1] is 0.33 kcal/mol per non-hydrogen atom.

As to `COc1ccc(-n2c(-c3cccnc3)nc3ccccc3c2=O)cc1` [Compound 21], the IC50 on EcIspE [1] (setting [4]) came to 2.7e-05 M. Moreover, at EcIspE [1], the Ligand efficiency is 0.28 kcal/mol per non-hydrogen atom and the “fold weaker IC50 / loss in potency” value turned out to be 11 fold.

Take `O=C1Cc2c([nH]c3ccc(Br)cc23)-c2ccccc2N1` [kenpaullone, reference compound]: the “EcIspE inhibition at 100 µM” value at EcIspE [1] was “none of the compounds showed any EcIspE inhibition”.

`c1ccc(C[n+]2cccc3cc[nH]c32)cc1` [Compound 15]: in data set [3], the solubility lay in the range of 1000 to 5000 µM.

For `CNc1ncc(Br)nc1N` [Compound 2], the concentration for half-maximal inhibition (IC50) on EcIspE [1] (setting [4]) was determined as 0.00059 M. For the same compound, the Ligand efficiency on EcIspE [1] is 0.53 kcal/mol per non-hydrogen atom.

On to purvalanol [reference compound], for which the “EcIspE inhibition at 100 µM” value on EcIspE [1] is “none of the compounds showed any EcIspE inhibition”.

Take `O=c1c2ccccc2nc(-c2ccccn2)n1-c1ccccc1` [Compound 22]: the IC50 on EcIspE [1] (setting [4]) is 0.00018 M. The Ligand efficiency on EcIspE [1] is 0.26 kcal/mol per non-hydrogen atom.

For `Oc1ccccc1CNc1nccs1` [Compound 10], on EcIspE [1] (setting [4]), the IC50 is 0.0066 M. Also, the Ligand efficiency on EcIspE [1] was 0.27 kcal/mol per non-hydrogen atom.

On to `Nc1cc(-c2ccco2)[nH]n1` [Compound 6], for which the IC50 on EcIspE [1] (setting [4]) was determined as 0.0035 M. The Ligand efficiency at EcIspE [1] is 0.28 kcal/mol per non-hydrogen atom.

Turning to `Nc1ccn([C@@H]2O[C@H](CNC(=O)CCc3nc4ccccc4[nH]3)[C@@H](O)[C@H]2O)c(=O)n1` [b], the IC50 at EcIspE [2] is 2000 µM.

On to `Cc1[nH]c2ccccc2c1C(Nc1ccccn1)c1cccc(Cl)c1` (centres unmarked) [Compound 18], for which the Ligand efficiency at EcIspE [1] is on record as 0.21 kcal/mol per non-hydrogen atom.

For the compound `CN1CC=C(c2c(C3CC3)[nH]c3ncccc23)CC1` [Compound 14], the IC50 at EcIspE [1] (setting [4]) is 0.0087 M. On EcIspE [1], the Ligand efficiency is listed as 0.19 kcal/mol per non-hydrogen atom and the “fold weaker IC50 / loss in potency” value is 5.8 fold.
